Assay results taken from patent US12600726B2, “Antagonists of the muscarinic acetylcholine receptor M4” (Vanderbilt University, priority 2017, dated 2026).

Tests used:
Rat M4 = target: T1, Rat M4 (Rattus norvegicus, UniProt P08485); experiment: mAChR M4 cell-based functional calcium flux assay (rat M4/Gqi5/CHO cells); settings: for Emin (rat M4): % ACh maximum at 30 μM
T1 construct: expressed in transfected cells; host or cells: CHO-K1 (ATCC), stably expressing M4 and Gqi5
T1 sequence (P08485 1-478): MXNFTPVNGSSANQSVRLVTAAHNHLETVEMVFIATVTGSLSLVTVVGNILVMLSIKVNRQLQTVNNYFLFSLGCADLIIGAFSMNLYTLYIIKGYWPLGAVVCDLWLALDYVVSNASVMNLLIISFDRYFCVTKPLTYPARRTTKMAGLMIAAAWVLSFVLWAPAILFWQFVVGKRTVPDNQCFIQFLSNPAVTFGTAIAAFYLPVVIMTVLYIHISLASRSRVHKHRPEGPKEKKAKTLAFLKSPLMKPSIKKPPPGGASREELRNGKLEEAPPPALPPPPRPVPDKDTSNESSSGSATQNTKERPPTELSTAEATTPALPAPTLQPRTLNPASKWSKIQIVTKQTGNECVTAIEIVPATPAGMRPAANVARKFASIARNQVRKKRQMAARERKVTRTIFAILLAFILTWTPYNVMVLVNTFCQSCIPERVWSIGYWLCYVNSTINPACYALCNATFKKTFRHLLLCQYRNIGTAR
Method in brief: (§1)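 CHO-K1 cells stably co-expressing M4 of the given species with chimeric Gqi5 were loaded with Fluo-4 AM and read for calcium flux. Compounds (10-point, 1:3 dilutions) were added first, followed by an acetylcholine EC20 at 143 s and an EC80 at 268 s. IC50 reflects the concentration-dependent fall in the EC80 response, fitted with a four-parameter logistic.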

Human M4 = target: T2, Human M4 (Homo sapiens, UniProt P08173); experiment: mAChR M4 cell-based functional calcium flux assay (human M4/Gqi5/CHO cells); settings: for Emin (human M4): % ACh maximum at 30 μM; for IC50: decrease of the response to an EC80 concentration of acetylcholine
T2 construct: expressed in transfected cells; host or cells: CHO-K1 (ATCC), stably expressing M4 and Gqi5
T2 sequence (P08173 1-479): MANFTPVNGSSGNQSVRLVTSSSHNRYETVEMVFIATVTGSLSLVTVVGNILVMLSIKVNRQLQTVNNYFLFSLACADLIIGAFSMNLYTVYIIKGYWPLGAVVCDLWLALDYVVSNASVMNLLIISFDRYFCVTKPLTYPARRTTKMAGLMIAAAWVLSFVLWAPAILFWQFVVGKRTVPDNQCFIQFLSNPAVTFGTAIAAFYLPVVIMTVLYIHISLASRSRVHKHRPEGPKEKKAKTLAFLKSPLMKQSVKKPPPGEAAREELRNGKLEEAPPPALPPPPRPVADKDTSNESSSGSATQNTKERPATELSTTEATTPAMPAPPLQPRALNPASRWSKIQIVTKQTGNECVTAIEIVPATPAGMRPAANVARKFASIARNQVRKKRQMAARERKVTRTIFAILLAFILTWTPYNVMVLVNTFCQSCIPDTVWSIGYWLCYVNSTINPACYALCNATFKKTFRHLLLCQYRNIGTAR
Method in brief: as §1

[1] = decrease of the response to an EC80 concentration of acetylcholine
[2] = cells printed in μM, decrease of the EC80 acetylcholine response

| Compound | Emin (rat M4) (Rat M4) [%] | IC50 (Rat M4; [1]) [µM] | Emin (human M4) (Human M4) [%] | IC50 (Human M4) [µM] | IC50 (Rat M4; [2]) [µM] |
| --- | --- | --- | --- | --- | --- |
| Cc1cnn(C)c1-c1ccc(NC(=O)C2CC23CCN(CCC(C)(C)C)CC3)nn1 (stereo not drawn) [Compound 5, N-(6-(1,4-dimethyl-1H-pyrazol-5-yl)pyridazin-3-yl)-6-(3,3-dimethylbutyl)-6-azaspiro[2.5]octane-1-carboxamide] | 18.7 | 5.72 | 5.53 | 1.68 |  |
| CC(C)(C)CCN1CCC2(CC1)CC2CNc1ccc(-c2cc(F)ccc2F)nn1 (stereo not drawn) [Compound 30, 6-(2,5-difluorophenyl)-N-[[6-(3,3-dimethylbutyl)-6-azaspiro[2.5]octan-2-yl]methyl]pyridazin-3-amine] | 3.26 | 0.107 | 2.43 | 0.0312 |  |
| Cc1nn(C)cc1-c1ccc(NCC2CC23CCN(CC2CC2)CC3)nn1 (stereo not drawn) [Compound 55, N-[[6-(cyclopropylmethyl)-6-azaspiro[2.5]octan-2-yl]methyl]-6-(1,3-dimethylpyrazol-4-yl)pyridazin-3-amine] | 45.7 |  | 16.7 | 2.89 | > 10 |
| Cc1cnn(C)c1-c1ccc(NCC2CC23CCN(CCC(C)(C)C)CC3)nn1 (stereo not drawn) [Compound 35, N-[[6-(3,3-dimethylbutyl)-6-azaspiro[2.5]octan-2-yl]methyl]-6-(2,4-dimethylpyrazol-3-yl)pyridazin-3-amine] | 3.44 | 0.0478 | 2.58 | 0.00315 |  |
| Fc1ccc(Cl)c(-c2ccc(NC[C@@H]3CC34CCN(CC35CC6CC(CC(C6)C3)C5)CC4)nn2)c1 [Compound 115, N-[[(2R)-6-(1-adamantylmethyl)-6-azaspiro[2.5]octan-2-yl]methyl]-6-(2-chloro-5-fluoro-phenyl)pyridazin-3-amine] | 3 | 0.152 | 2 | 0.0698 |  |
| C1=CC2CC1CC2CN1CCC2(CC1)CC2CNc1ccc(N2CCOCC2)nn1 (stereo not drawn) [Compound 82, N-[[6-(5-bicyclo[2.2.1]hept-2-enylmethyl)-6-azaspiro[2.5]octan-2-yl]methyl]-6-morpholino-pyridazin-3-amine] | 6 | 0.0482 | 3 | 0.00506 |  |
| CC(=O)Nc1ccc(-c2ccc(NC[C@@H]3CC34CCN(CC35CC6CC(CC(C6)C3)C5)CC4)nn2)cc1 [Compound 120, N-[4-[6-[[(2R)-6-(1-adamantylmethyl)-6-azaspiro[2.5]octan-2-yl]methylamino]pyridazin-3-yl]phenyl]acetamide] | 3 | 0.0357 | 4 | 0.0287 |  |
| Cc1ccc(F)cc1-c1ccc(NCC2CC23CCN(CCC(C)(C)C)CC3)nn1 (stereo not drawn) [Compound 29, N-[[6-(3,3-dimethylbutyl)-6-azaspiro[2.5]octan-2-yl]methyl]-6-(5-fluoro-2-methyl-phenyl)pyridazin-3-amine] | 3.14 | 0.0398 | 2.78 | 0.0172 |  |
| CC(=O)Nc1ccc(-c2ccc(NCC3CC34CCN(CCC(C)(C)C)CC4)nn2)cc1 (stereo not drawn) [Compound 40, N-[4-[6-[[[6-(3,3-dimethylbutyl)-6-azaspiro[2.5]octan-2-yl]methyl]amino]pyridazin-3-yl]phenyl]acetamide] | 3.40 | 0.0173 | 2.97 | 0.00456 |  |
| Fc1ccc(Cl)c(-c2ccc(NC[C@@H]3CC34CCN(CC3CCCCC3)CC4)nn2)c1 [Compound 65, (R)-6-(2-chloro-5-fluoro-phenyl)-N-[[6-(cyclohexylmethyl)-6-azaspiro[2.5]octan-2-yl]methyl]pyridazin-3-amine] | 4.33 | 0.0809 | 2.62 | 0.0127 |  |
| Cn1nccc1-c1ccc(NCC2CC23CCN(CCC(C)(C)C)CC3)nn1 (stereo not drawn) [Compound 38, N-[[6-(3,3-dimethylbutyl)-6-azaspiro[2.5]octan-2-yl]methyl]-6-(2-methylpyrazol-3-yl)pyridazin-3-amine] | 4.05 | 0.024 | 3.30 | 0.00371 |  |
| CC(C)(C)CCN1CCC2(CC1)CC2CNc1ccc(N2CCC(F)(F)CC2)nn1 (stereo not drawn) [Compound 80, 6-(4,4-difluoro-1-piperidyl)-N-[[6-(3,3-dimethylbutyl)-6-azaspiro[2.5]octan-2-yl]methyl]pyridazin-3-amine] | 3 | 0.0934 | 3 | 0.0398 |  |
| c1ccc(-c2cnc(NCC3CC34CCN(CC3CCOCC3)CC4)s2)cc1 (stereo not drawn) [Compound 73, 5-phenyl-N-[[6-(tetrahydropyran-4-ylmethyl)-6-azaspiro[2.5]octan-2-yl]methyl]thiazol-2-amine] | 9.84 | 3.09 | 8.96 | 6.55 |  |
| CC(=O)Nc1ccc(-c2ccc(NC[C@@H]3CC34CCN(Cc3ccc(F)cc3)CC4)nn2)cc1 [Compound 123, N-[4-[6-[[(2R)-6-[(4-fluorophenyl)methyl]-6-azaspiro[2.5]octan-2-yl]methylamino]pyridazin-3-yl]phenyl]acetamide] | 4 | 0.207 | 5 | 0.575 |  |
| Cc1nn(C)cc1-c1cnc(NCC2CC23CCN(CC(C)C(C)(C)C)CC3)cn1 (stereo not drawn) [Compound 22, 5-(1,3-dimethylpyrazol-4-yl)-N-[[6-(2,3,3-trimethylbutyl)-6-azaspiro[2.5]octan-2-yl]methyl]pyrazin-2-amine] | 4.67 | 0.404 | 3.25 | 0.169 |  |
| CCN1CCC2(CC1)CC2CNc1ccc(-c2cn(C)nc2C)nn1 (stereo not drawn) [Compound 53, 6-(1,3-dimethylpyrazol-4-yl)-N-[(6-ethyl-6-azaspiro[2.5]octan-2-yl)methyl]pyridazin-3-amine] | 75.5 |  | 75.5 |  | > 10 |
| Fc1ccc(Cl)c(-c2ccc(NC[C@H]3CC34CCN(CC3CCCCC3)CC4)nn2)c1 [Compound 67, (S)-6-(2-chloro-5-fluoro-phenyl)-N-[[6-(cyclohexylmethyl)-6-azaspiro[2.5]octan-2-yl]methyl]pyridazin-3-amine] | 4.36 | 0.527 | 3.66 | 0.0278 |  |
| Cc1cccnc1CN1CCC2(CC1)CC2CNc1ccc(-c2cn(C)nc2C)nn1 (stereo not drawn) [Compound 62, 6-(1,3-dimethylpyrazol-4-yl)-N-[[6-[(3-methyl-2-pyridyl)methyl]-6-azaspiro[2.5]octan-2-yl]methyl]pyridazin-3-amine] | 19.9 | 4.46 | 4.23 | 0.271 |  |
| CC(C)(C)CCN1CCC2(CC1)CC2CNc1ccc(-c2cc(F)ccc2Cl)nn1 (stereo not drawn) [Compound 13, 6-(2-chloro-5-fluoro-phenyl)-N-[[6-(3,3-dimethylbutyl)-6-azaspiro[2.5]octan-2-yl]methyl]pyridazin-3-amine] | 2.82 | 0.117 | 2.29 | 0.0156 |  |
| Cc1nn(C)cc1-c1ccc(NCC2CC23CCN(CC24CC5CC(CC(C5)C2)C4)CC3)nn1 (stereo not drawn) [Compound 57, N-[[6-(1-adamantylmethyl)-6-azaspiro[2.5]octan-2-yl]methyl]-6-(1,3-dimethylpyrazol-4-yl)pyridazin-3-amine] | 3.84 | 0.534 | 3.30 | 0.0691 |  |
| CC(C)(C)CCN1CCC2(CC1)CC2CNc1ccc(N2CCCC2)nn1 (stereo not drawn) [Compound 81, N-[[6-(3,3-dimethylbutyl)-6-azaspiro[2.5]octan-2-yl]methyl]-6-pyrrolidin-1-yl-pyridazin-3-amine] | 4 | 0.307 | 4 | 0.0852 |  |
| Cc1nn(C)cc1-c1ccc(NCC2CC23CCN(CC2CC4C=CC2C4)CC3)nc1 (stereo not drawn) [Compound 70, N-[[6-(5-bicyclo[2.2.1]hept-2-enylmethyl)-6-azaspiro[2.5]octan-2-yl]methyl]-5-(1,3-dimethylpyrazol-4-yl)pyridin-2-amine] | 3.96 | 0.17 | 3.29 | 0.0452 |  |
